Relative viability data for 1 cell line are collected here from the supplement of paper PMC10307832.

Test in all cases: relative viability (nuclei count vs DMSO), 5 days (fraction); higher = more cells survive
Compound in the experiment “Imatinib + Navitoclax”: Cc1ccc(NC(=O)c2ccc(CN3CCN(C)CC3)cc2)cc1Nc1nccc(-c2cccnc2)n1 [Imatinib] + CC1(C)CCC(c2ccc(Cl)cc2)=C(CN2CCN(c3ccc(C(=O)NS(=O)(=O)c4ccc(N[C@H](CCN5CCOCC5)CSc5ccccc5)c(S(=O)(=O)C(F)(F)F)c4)cc3)CC2)C1 [Navitoclax] (partner 0.5 µM)
In short, it runs like this:
(§1)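 Cells from lung cancer lines were seeded into 1536-well plates and, one day later, dosed by pin tool. Treatments were either a single drug or a fixed dose of an anchor drug with five library-drug doses (not always all listed) in √10 steps. After 5 days, nuclei were stained in a one-step fixation (final 0.05% Triton X-100, 1% formaldehyde, 1 ug/ml Hoechst) and counted on 4× images, and relative viability is the treated-to-vehicle nuclei ratio, as the median of duplicate plates.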

Compound in the experiment “Imatinib + Linsitinib”: Cc1ccc(NC(=O)c2ccc(CN3CCN(C)CC3)cc2)cc1Nc1nccc(-c2cccnc2)n1 [Imatinib] + C[C@]1(O)C[C@@H](c2nc(-c3ccc4ccc(-c5ccccc5)nc4c3)c3c(N)nccn32)C1 [Linsitinib] (partner 1 µM)
In short, it runs like this: as §1

Compound in the experiment “Imatinib + Pemetrexed”: Cc1ccc(NC(=O)c2ccc(CN3CCN(C)CC3)cc2)cc1Nc1nccc(-c2cccnc2)n1 [Imatinib] + Nc1nc2[nH]cc(CCc3ccc(C(=O)N[C@@H](CCC(=O)O)C(=O)O)cc3)c2c(=O)[nH]1 [Pemetrexed] (partner 0.2 µM)
In short, it runs like this:
as §1

Compound in the experiment “Imatinib + Olaparib”: Cc1ccc(NC(=O)c2ccc(CN3CCN(C)CC3)cc2)cc1Nc1nccc(-c2cccnc2)n1 [Imatinib] + O=C(c1cc(Cc2n[nH]c(=O)c3ccccc23)ccc1F)N1CCN(C(=O)C2CC2)CC1 [Olaparib] (partner 8 µM)
In short, it runs like this: as §1

Consider UMC-11, for which the relative viability is 0.303 in the experiment with Imatinib + Navitoclax (first compound 0.02 µM); 0.35 with Imatinib + Navitoclax (first compound 0.06325 µM); 0.291 in the experiment with Imatinib + Navitoclax (first compound 0.2 µM); 0.334 with Imatinib + Navitoclax (first compound 0.6325 µM); 0.329 with Imatinib + Navitoclax (first compound 2 µM); 1.14 in the experiment with Imatinib + Linsitinib (first compound 0.02 µM). The relative viability with Imatinib + Linsitinib (first compound 0.06325 µM) turned out to be 1.57; with Imatinib + Linsitinib (first compound 0.2 µM), 1.05; in the experiment with Imatinib + Linsitinib (first compound 0.6325 µM), 1.08; with Imatinib + Linsitinib (first compound 2 µM) it was 1.06; with Imatinib + Pemetrexed (first compound 0.02 µM), 0.906; in the experiment with Imatinib + Pemetrexed (first compound 0.06325 µM), 0.972. In addition, the relative viability in the experiment with Imatinib + Pemetrexed (first compound 0.2 µM) came out at 0.864; with Imatinib + Pemetrexed (first compound 0.6325 µM), 0.811; with Imatinib + Pemetrexed (first compound 2 µM) it was 0.781; with Imatinib + Olaparib (first compound 0.02 µM) it was 0.352; in the experiment with Imatinib + Olaparib (first compound 0.06325 µM) it was 0.514; with Imatinib + Olaparib (first compound 0.2 µM) it was 0.366. Further, the relative viability with Imatinib + Olaparib (first compound 0.6325 µM) worked out at 0.41; with Imatinib + Olaparib (first compound 2 µM) it was 0.301.
